What was measured:
Type in all cases: cell-based
[1] = molecular target: T1, TYK2 (Homo sapiens, UniProt P29597); test: TYK2 degradation MSD assay in EBV-B cells; set-up: endogenous in cells; host or cells: EBV-B cells; settings: 4 to 24 hours incubation, read-out: TYK2 MSD DC50 rating in EBV-B
Procedure, shortened: (§1)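 MSD electrochemiluminescence readout of residual TYK2 in RIPA lysates after 4–24 h compound exposure at 37° C. Dosing: 9 concentrations, 1:3 steps, top 1 to 10 μM. DC50 fitted by four-parameter inhibitor vs. response regression.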

[2] = molecular target: T1, TYK2; test: TYK2 degradation MSD assay in OCI-LY10 cells; set-up: endogenous in cells; host or cells: EBV-B cells; settings: 4 to 24 hours incubation, read-out: TYK2 MSD DC50 rating in OCI-LY10
Procedure, shortened: as §1

[3] = molecular target: T1, TYK2; test: TYK2 degradation MSD assay in human PBMC cells; set-up: endogenous in cells; host or cells: human PBMC; settings: 4 to 24 hours incubation, read-out: TYK2 MSD DC50 rating in human PBMC
Procedure, shortened: as §1

T1 sequence (P29597 whole entry): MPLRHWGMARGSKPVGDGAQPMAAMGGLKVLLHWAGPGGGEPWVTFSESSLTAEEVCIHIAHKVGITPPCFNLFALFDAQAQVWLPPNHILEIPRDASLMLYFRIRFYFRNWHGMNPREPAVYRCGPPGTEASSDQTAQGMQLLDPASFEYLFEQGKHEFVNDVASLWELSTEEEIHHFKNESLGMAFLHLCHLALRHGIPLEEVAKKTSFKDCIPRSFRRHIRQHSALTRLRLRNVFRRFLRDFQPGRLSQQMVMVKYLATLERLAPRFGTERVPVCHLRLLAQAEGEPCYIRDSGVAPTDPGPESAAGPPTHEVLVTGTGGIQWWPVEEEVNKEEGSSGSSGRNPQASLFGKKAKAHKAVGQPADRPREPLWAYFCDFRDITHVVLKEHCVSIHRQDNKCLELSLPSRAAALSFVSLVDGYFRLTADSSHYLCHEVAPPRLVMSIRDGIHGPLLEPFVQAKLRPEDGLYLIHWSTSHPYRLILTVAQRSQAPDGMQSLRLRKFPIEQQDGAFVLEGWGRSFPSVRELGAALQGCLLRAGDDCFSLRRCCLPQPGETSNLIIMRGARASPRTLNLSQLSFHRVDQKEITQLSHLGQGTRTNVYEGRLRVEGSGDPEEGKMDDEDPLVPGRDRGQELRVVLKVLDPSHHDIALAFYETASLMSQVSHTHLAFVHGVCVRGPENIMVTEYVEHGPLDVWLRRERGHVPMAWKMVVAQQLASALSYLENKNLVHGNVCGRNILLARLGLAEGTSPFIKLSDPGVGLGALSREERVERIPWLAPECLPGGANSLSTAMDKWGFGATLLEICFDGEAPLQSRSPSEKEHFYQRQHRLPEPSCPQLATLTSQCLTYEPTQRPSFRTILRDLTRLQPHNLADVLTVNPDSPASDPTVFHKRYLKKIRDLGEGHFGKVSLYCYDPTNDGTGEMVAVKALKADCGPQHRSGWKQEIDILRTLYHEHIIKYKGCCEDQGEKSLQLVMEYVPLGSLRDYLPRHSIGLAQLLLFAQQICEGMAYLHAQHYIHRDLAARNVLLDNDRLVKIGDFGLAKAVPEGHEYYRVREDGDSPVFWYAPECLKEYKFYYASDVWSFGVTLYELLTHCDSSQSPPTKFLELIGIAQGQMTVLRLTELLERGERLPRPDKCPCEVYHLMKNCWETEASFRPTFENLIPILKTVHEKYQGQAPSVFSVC

| SMILES | DC50 [1] [nM] | DC50 [2] [nM] | DC50 [3] [nM] |
| --- | --- | --- | --- |
| CNc1cc(Nc2cccc(-c3ccc(CN4CCN([C@H]5CC[C@H](c6ccc7c(c6)n(C)c(=O)n7C6CCC(=O)NC6=O)CC5)CC4)cn3)c2OC)nn2c(C(=O)N[C@@H]3C[C@@H]3F)cnc12 (mixture of isomers) [Example K553] | < 1 | < 1 | > 100 |
| Cc1cc(Nc2cccc(-c3ccc(CN4CCN(c5ccc(-c6ccc7c(c6)n(C)c(=O)n7C6CCC(=O)NC6=O)cc5)CC4)cn3)c2)nn2c(C(=O)N[C@@H]3C[C@@H]3F)cnc12 (stereo partly drawn) [Example K502] | > 100 | 1 to 10 | > 100 |
| CNc1cc(Nc2cccn(-c3ccc(C(=O)N4CCC45CN(c4ncc(C#Cc6ccc7c(c6)n(C)c(=O)n7C6CCC(=O)NC6=O)cn4)C5)cn3)c2=O)nn2c(C(=O)N[C@@H]3C[C@@H]3F)cnc12 (stereo partly drawn) [Example K376] | 10 to 100 | > 100 | > 100 |
| Cn1c(=O)n(C2CCC(=O)NC2=O)c2ccc(CCCCNC(=O)c3ccc(-c4ccc5ncc(C(=O)N[C@@H]6C[C@@H]6F)n5n4)cc3)cc21 (stereo partly drawn) [Example K324] | > 100 | > 100 | > 100 |
| CNc1cc(Nc2cccn(C3CCN(C(=O)N(C)CC4CCN(Cc5cccc6c5n(C)c(=O)n6C5CCC(=O)NC5=O)CC4)CC3)c2=O)nn2c(C(=O)N[C@@H]3C[C@@H]3F)cnc12 (stereo partly drawn) [Example K397] | 1 to 10 | > 100 | > 100 |
| Cn1c(=O)n(C2CCC(=O)NC2=O)c2cccc(CCCCCCNc3cc(Nc4cccn(-c5ccccn5)c4=O)nn4c(C(=O)N[C@@H]5C[C@@H]5F)cnc34)c21 (stereo partly drawn) [Example K206] | > 100 | > 100 | > 100 |
| Cn1c(=O)n(C2CCC(=O)NC2=O)c2ccc(-c3ccc(N4CC5(CN(Cc6ccc(-c7cccc(Nc8ccc9ncc(C(=O)NC%10CC%10)n9n8)c7)nc6)C5)C4)cc3)cc21 (stereo not drawn) [Example K515] | 1 to 10 | 1 to 10 | > 100 |
| CNc1cc(-c2ccc(-c3ccc(CN4CCC(N5CC(N6CCN(c7ccc8c(c7)n(C)c(=O)n8C7CCC(=O)NC7=O)CC6)C5)CC4)cn3)cc2)nn2c(C(=O)N[C@@H]3C[C@@H]3F)cnc12 (stereo partly drawn) [Example K480] | > 100 | < 1 | > 100 |
| CNc1cc(Nc2cccc(-c3ccc(CN4CCN(CCCOc5ccc(C6CCC(=O)NC6=O)cc5)CC4)cn3)c2)nn2c(C(=O)N[C@@H]3C[C@@H]3F)cnc12 (stereo partly drawn) [Example K504] | < 1 | > 100 | > 100 |
| CNc1cc(Nc2cccn(-c3cccc(C(=O)NCCCCCCCCc4cccc5c4n(C)c(=O)n5C4CCC(=O)NC4=O)c3)c2=O)nn2c(C(=O)N[C@@H]3C[C@@H]3F)cnc12 (stereo partly drawn) [Example K224] | > 100 | > 100 | 10 to 100 |
| CNC(=O)c1cnc(Nc2ccc(C(=O)NCCOCCOCCc3ccc4c(c3)n(C)c(=O)n4C3CCC(=O)NC3=O)cn2)cc1Nc1cccc(-c2ncc(F)cn2)c1OC (stereo not drawn) [Example K112] | 1 to 10 | > 100 | 1 to 10 |
| CNc1cc(N2CCc3c(N4CCC(CN5CC6(C5)CN(c5ccc(-c7ccc8c(c7)n(C)c(=O)n8C7CCC(=O)NC7=O)cc5)C6)CC4)cccc32)nn2c(C(=O)N[C@@H]3C[C@@H]3F)cnc12 (stereo partly drawn) [Example K573] | > 100 | 1 to 10 | > 100 |
| CNc1cc(-c2cnn(C3CCN(C(=O)NCCCCCCc4cccc5c4n(C)c(=O)n5C4CCC(=O)NC4=O)CC3)c2)nn2c(C(=O)N[C@@H]3C[C@@H]3F)cnc12 (stereo partly drawn) [Example K312] | > 100 | > 100 | > 100 |
| CNC(=O)c1cnc(Nc2ccc(CN(C)CC3CCN(Cc4cccc5c4n(C)c(=O)n5C4CCC(=O)NC4=O)CC3)cn2)cc1Nc1cccc(-c2ncc(F)cn2)c1OC (stereo not drawn) [Example K134] | < 1 | > 100 | < 1 |
| CNC(=O)c1cnc(Nc2ccc(CN3CCC(OCC#Cc4ccc5c(c4)n(C)c(=O)n5C4CCC(=O)NC4=O)CC3)cn2)cc1Nc1cccc(-c2ncc(F)cn2)c1OC (stereo not drawn) [Example K708] | < 1 | > 100 | > 100 |
| CNc1cc(Nc2cccc(N3CCN(CC4CCN(c5ccc(-c6ccc7c(c6)n(C)c(=O)n7C6CCC(=O)NC6=O)cc5)CC4)CC3)c2)nn2c(C(=O)N[C@@H]3C[C@@H]3F)cnc12 (stereo partly drawn) [Example K466] | < 1 | > 100 | > 100 |
| CNC(=O)c1cnc(NC(=O)NCCCCc2cccc3c2n(C)c(=O)n3C2CCC(=O)NC2=O)cc1Nc1cccc(-c2ncc(F)cn2)c1OC (stereo not drawn) [Example K105] | > 100 | > 100 | > 100 |
| CNc1cc(Nc2cccn(-c3cccc(C(=O)NCCCCCCc4cccc5c4n(C)c(=O)n5C4CCC(=O)NC4=O)c3)c2=O)nn2c(C(=O)N[C@@H]3C[C@@H]3F)cnc12 (stereo partly drawn) [Example K222] | > 100 | > 100 | 1 to 10 |
| CNC(=O)c1cnc(Nc2ccc(C(=O)NCCCCc3cccc4c3n(C)c(=O)n4C3CCC(=O)NC3=O)cn2)cc1Nc1cccn(C)c1=O (stereo not drawn) [Example K189] | > 100 | 10 to 100 | 10 to 100 |
| CNc1cc(Nc2cccn(-c3ccc(C(=O)N4CCN(C(=O)C5CC(N6CCC(OCCCc7ccc8c(c7)n(C)c(=O)n8C7CCC(=O)NC7=O)CC6)C5)CC4)cn3)c2=O)nn2c(C(=O)N[C@@H]3C[C@@H]3F)cnc12 (stereo partly drawn) [Example K423] | > 100 | 1 to 10 | > 100 |
| CNc1cc(Nc2cccc(CN3CCN(C(=O)CCc4ccc(-c5ccc6c(c5)n(C)c(=O)n6C5CCC(=O)NC5=O)cc4)CC3)c2)nn2c(C(=O)NC3CC3)cnc12 (stereo not drawn) [Example K587] | > 100 | 1 to 10 | > 100 |
| CNc1cc(Nc2cccc(C#CCN3CCN(c4ccc(-c5ccc6c(c5)n(C)c(=O)n6C5CCC(=O)NC5=O)cc4)CC3)c2OC)nn2c(C(=O)N[C@@H]3C[C@@H]3F)cnc12 (mixture of isomers) [Example K543, 6-({3-[3-(4-{4-[1-(2,6-Dioxopiperidin-3-yl)-3-methyl-2-oxo-1,3-benzodiazol-5-yl]phenyl}piperazin-1-yl)prop-1-yn-1-yl]-2-methoxyphenyl}amino)-N-[(1R,2S)-2-fluorocyclopropyl]-8-(methylamino)imidazo[1,2-b]pyridazine-3-carboxamide] | > 100 | < 1 | > 100 |
| CNc1cc(Nc2cccn(-c3cccc(C(=O)NCCCCCCCCCCc4cccc5c4n(C)c(=O)n5C4CCC(=O)NC4=O)c3)c2=O)nn2c(C(=O)N[C@@H]3C[C@@H]3F)cnc12 (stereo partly drawn) [Example K226] | > 100 | > 100 | 10 to 100 |
| CNc1cc(N2CCc3c(-c4ccc(CN5CCC(N6CCN(C(=O)c7ccc(Cl)c(N8CCC(=O)NC8=O)c7)CC6)CC5)cn4)cccc32)nn2c(C(=O)N[C@@H]3C[C@@H]3F)cnc12 [Example K559] | > 100 | 1 to 10 | > 100 |
| CNc1cc(Oc2cnn(C3CCN(CC4CCN(c5ccc(-c6ccc7c(c6)n(C)c(=O)n7C6CCC(=O)NC6=O)cc5)CC4)CC3)c2)nn2c(C(=O)N[C@@H]3C[C@@H]3F)cnc12 (mixture of isomers) [Example K547] | > 100 | > 100 | > 100 |
| CNc1cc(Nc2cccn(-c3ccc(C(=O)N4CCC5(CC4)CCN(c4ccc6c(c4)n(C)c(=O)n6C4CCC(=O)NC4=O)C5)cn3)c2=O)nn2c(C(=O)N[C@@H]3C[C@@H]3F)cnc12 (stereo partly drawn) [Example K392] | > 100 | > 100 | < 1 |

From patent US20250051338A1, “TYK2 DEGRADERS AND USES THEREOF” (Kymera Therapeutics, Inc., priority 2021, published 2025)
